Source: publication PMC11117207, “Discovery of Antimicrobial Agents Based on Structural and Functional Study of the Klebsiella pneumoniae MazEF Toxin–Antitoxin System” (Antibiotics, 2024)

System: K. pneumoniae MazEF complex
Test: In vitro assay of MazEF complex disruption by peptides (RNase Alert fluorescence assay)
Type: biochemical, Klebsiella pneumoniae
Conditions: 20 μM peptide, 4 μM MazEF complex, 30 min at 37 °C; for disruption of the MazEF complex (RNase activity): 20 mM Tris pH 8.0, 200 mM NaCl, RFU of 4 μM MazF = 100%, of 4 μM MazEF ~0%, three independent experiments
Source text: To validate the ribonuclease activity of MazF toxin, an RNase Alert Kit (IDT, Coralville, IA, USA) was used. The principle is as follows. In the normal state, a fluorophore is covalently attached to one end of a synthetic RNA strand and is quenched by a quencher group at the other end of the RNA strand. However, the synthetic RNA is digested and the quencher is released when the ribonuclease interacts with substrates. Then, the released fluorophore emits fluorescence at 520 nm upon excitation at 490 nm. The resulting relative fluorescence units (RFU) were detected using a SPECTRAmax GEMINI XS spectrofluorometer (Molecular Devices, San Jose, CA, USA). All experiments were performed in triplicate.
In addition to the disruption assay using small molecules, 10 short peptides that mimic the binding region between MazE and MazF were designed based on the tertiary crystal structure of the MazEF complex and purchased from ANYGEN (http://www.anygen.com, accessed on 21 April 2024) (Table 1). Among the peptides tested, six were designed to mimic the region on MazE where it binds to MazF, while the remaining four were designed to mimic the region on MazF where it binds to MazE. This design was chosen to investigate the interactions between MazE and MazF and their respective binding regions. The main principle and process were consistent with those of complex disruption by small molecules, which has been mentioned above. The concentration of the MazEF complex was fixed at 4 μM, and the concentration of competing peptides was 20 μM. Furthermore, all of the proteins and peptides used in this assay were prepared in 20 mM Tris, pH 8.0, and 200 mM NaCl. The MazEF complex was incubated with the peptides for 30 min at 37 °C before fluorescence measurement.

Row | Substance | RNase activity compared with the related peptide (in words) | disruption of the MazEF complex (RNase activity)
1 | QVKSLD [Peptide H, MazF-mimicking peptide QVKSLD (77–82)] | no significant difference | 
2 | KSLDWKAR [Peptide I, MazF-mimicking peptide KSLDWKAR (79–86)] | dramatic increase in RNase activity | 
3 | DSQGKE [Peptide A, MazE-mimicking peptide DSQGKE (69–74)] |  | approximately 65%
4 | EYLCDSQGKE [Peptide C, MazE-mimicking peptide […]; (65–74)] | did not exhibit significant differences from Peptide A | 
5 | YLCDSQGKEML [Peptide E, MazE-mimicking peptide […]; (66–76)] |  | 80−83%
6 | QVKSLDWKAR [Peptide J, MazF-mimicking peptide […]; (77–86)] | dramatic increase in RNase activity | 
7 | YLCDSQGKE [Peptide B, MazE-mimicking peptide … (66–74)] | did not exhibit significant differences from Peptide A | 
8 | KSLD [Peptide G, MazF-mimicking peptide KSLD (79–82)] | no significant difference | 
9 | EYLCDSQGKEML [Peptide F, MazE-mimicking peptide […]; (65–76)] |  | 80−83%
